Laboratory results from PMC6026185 (Scientific Reports, 2018).
Where two headings read alike, the source gives them in different places.

What was measured:
[1] = molecular target: T1, hNKCC1B (Homo sapiens, UniProt P55011); experiment: 86Rb+ uptake in hNKCC1B-expressing Xenopus laevis oocytes; assay type: cell-based; conditions: 5 min, corrected for uninjected oocytes, median and range of 3–7 experiments
T1 construct: expressed in transfected cells; host or cells: Xenopus laevis oocytes injected with cRNA (pXOOM vector)
T1 sequence (P55011 1-1196 isoform P55011-3): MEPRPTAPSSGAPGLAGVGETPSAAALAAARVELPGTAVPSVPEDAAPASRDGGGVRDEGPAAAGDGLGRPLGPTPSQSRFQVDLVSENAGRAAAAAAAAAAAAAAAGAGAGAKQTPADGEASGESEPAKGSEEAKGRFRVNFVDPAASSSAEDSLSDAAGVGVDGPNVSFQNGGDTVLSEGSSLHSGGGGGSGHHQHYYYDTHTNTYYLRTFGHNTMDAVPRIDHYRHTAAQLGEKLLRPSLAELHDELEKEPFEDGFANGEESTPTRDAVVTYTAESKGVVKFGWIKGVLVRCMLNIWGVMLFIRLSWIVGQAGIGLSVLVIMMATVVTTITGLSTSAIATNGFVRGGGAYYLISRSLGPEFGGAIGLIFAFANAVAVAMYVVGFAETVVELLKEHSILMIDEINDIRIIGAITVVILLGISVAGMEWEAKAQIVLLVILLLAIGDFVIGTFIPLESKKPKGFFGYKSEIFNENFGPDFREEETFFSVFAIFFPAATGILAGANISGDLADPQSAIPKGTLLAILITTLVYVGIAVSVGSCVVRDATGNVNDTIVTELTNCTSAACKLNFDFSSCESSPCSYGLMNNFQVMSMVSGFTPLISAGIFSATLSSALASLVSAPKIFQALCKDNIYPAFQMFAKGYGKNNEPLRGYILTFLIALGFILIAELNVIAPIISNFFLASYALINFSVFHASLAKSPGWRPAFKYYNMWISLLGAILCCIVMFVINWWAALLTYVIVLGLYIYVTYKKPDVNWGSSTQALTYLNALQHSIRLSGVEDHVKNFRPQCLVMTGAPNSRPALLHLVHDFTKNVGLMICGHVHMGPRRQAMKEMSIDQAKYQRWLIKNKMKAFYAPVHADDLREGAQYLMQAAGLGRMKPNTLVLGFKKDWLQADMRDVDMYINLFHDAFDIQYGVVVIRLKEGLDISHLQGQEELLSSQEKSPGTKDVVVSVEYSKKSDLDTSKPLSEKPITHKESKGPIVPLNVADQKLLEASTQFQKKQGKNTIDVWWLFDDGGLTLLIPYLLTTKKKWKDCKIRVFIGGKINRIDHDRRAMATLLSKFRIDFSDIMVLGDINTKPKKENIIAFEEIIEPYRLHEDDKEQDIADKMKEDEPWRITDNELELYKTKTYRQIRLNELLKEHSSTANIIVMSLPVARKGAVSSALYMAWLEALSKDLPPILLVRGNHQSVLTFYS
From the text: Human NKCC1A (NM_001046, obtained from Prof. Biff Forbush, Yale School of Medicine, CT) and NKCC1B (prepared by site-directed mutagenesis from hNKCC1A as described below) were subcloned into the oocytes expression vector pXOOM, linearized downstream from the poly-A segment, and in vitro transcribed using T7-mMessage Machine according to manufacturer’s instructions (Ambion, Austin, TX). cRNA was then extracted with MEGAclear (Ambion, Austin, TX) and micro-injected into defolliculated Xenopus laevis oocytes (25 ng RNA/oocyte). The oocytes were kept in Kulori medium (in mM: 90 NaCl, 1 KCl, 1 CaCl2, 1 MgCl2, 5 Hepes, pH 7.4, 182 mOsm) for 5–6 days at 19 °C prior to experiments.
To activate NKCC1A and NKCC1B prior to the ^86Rb^+ uptake measurements aimed at measuring NKCC-mediated fluxes, hNKCC1A- or hNKCC1B-expressing oocytes or uninjected control oocytes (4–13 oocytes per well) were pre-incubated for 30 min at room temperature in a K^+-free solution (containing in mM: 5 choline chloride, 95 NaCl, 1 MgCl2, 1 CaCl2, 10 Hepes, pH 7.4, 207 mOsm), which causes shrinkage of the oocyte and thus activation of NKCC1A[22]. […]
Significance of differences in transport activity of hNKCC1A or hNKCC1B expressing oocytes vs. uninjected oocytes were analyzed by the Kruskal-Wallis test followed by Dunn’s multiple comparisons test. […]

[2] = tested on: mNKCC2 isoform B; set-up: method as in ref Payne et al.[57]; Isenring et al.[58]; Plata et al.[59]; Carota et al.[56]; Lykke et al.[60]; Lykke et al.[29]; conditions: Xenopus oocytes; ref Payne et al.[57]; Isenring et al.[58]; Plata et al.[59]; Carota et al.[56]; Lykke et al.[60]; Lykke et al.[29]; read-out: IC50 (µM) NKCC2 (mB); cited from earlier work
[3] = set-up: method as in DrugBank database; conditions: ref DrugBank database; cited from earlier work
[4] = tested on: hNKCC2 isoform B; conditions: Xenopus oocytes; ref Payne et al.[57]; Isenring et al.[58]; Plata et al.[59]; Carota et al.[56]; Lykke et al.[60]; Lykke et al.[29]; read-out: IC50 (µM) NKCC2 (hB); cited from earlier work
[5] = tested on: mNKCC2 isoform F; set-up: method as in ref Payne et al.[57]; Isenring et al.[58]; Plata et al.[59]; Carota et al.[56]; Lykke et al.[60]; Lykke et al.[29]; conditions: Xenopus oocytes; ref Payne et al.[57]; Isenring et al.[58]; Plata et al.[59]; Carota et al.[56]; Lykke et al.[60]; Lykke et al.[29]; read-out: IC50 (µM) NKCC2 (mF); cited from earlier work
[6] = ref [9],[10]; cited from earlier work
[7] = tested on: hNKCC1; conditions: HEK-293 cells; activated state; NKCC1 isoforms not differentiated; ref Payne et al.[57]; Isenring et al.[58]; Plata et al.[59]; Carota et al.[56]; Lykke et al.[60]; Lykke et al.[29]; cited from earlier work
[8] = tested on: hNKCC2 isoform A; conditions: Xenopus oocytes; ref Payne et al.[57]; Isenring et al.[58]; Plata et al.[59]; Carota et al.[56]; Lykke et al.[60]; Lykke et al.[29]; read-out: IC50 (µM) NKCC2 (hA); cited from earlier work
[9] = tested on: hNKCC2 isoform F; conditions: Xenopus oocytes; ref Payne et al.[57]; Isenring et al.[58]; Plata et al.[59]; Carota et al.[56]; Lykke et al.[60]; Lykke et al.[29]; read-out: IC50 (µM) NKCC2 (hF); cited from earlier work
[10] = tested on: hNKCC1; set-up: method as in Gill et al.[47]; conditions: Rb+ flux, Ion Channel Reader technology, HEK cell line; ref Gill et al.[47]; cited from earlier work

IC50 [1]: 0.842 µM
SMILES: CCCCNc1cc(C(=O)O)cc(S(N)(=O)=O)c1Oc1ccccc1 [Bumetanide]
IC50 [2]: 0.6 µM | Lipophilicity (logP) [3]: 2.7 | IC50 [4]: 0.22 µM | IC50 [5]: 3.4 µM | plasma protein binding [6]: > 95% | IC50 [7]: 0.16 to 0.28 µM | IC50 [8]: 0.54 to 4 µM | IC50 [9]: 0.16 µM | IC50 [10]: 1160 nM
